Assay results: patent US10130618B2, “Pharmaceutical combinations of dabigatran and proton pump inhibitors” (SANOVEL ILAC SANAYI VE TICARET ANONIM SIRKETI, priority 2014, dated 2018)

How the values were obtained:
[1] = DSC analysis of 1:1 API mixtures (compatibility with Dabigatran etexilate); assay type: physicochemical; settings: for DSC peak temperature of the mixture (peak shifting) / Compatibility by DSC: 1:1 mixture with Dabigatran etexilate; for DSC peak temperature of the mixture (peak shifting): 10° C./min, 30° C. to 300° C.; for Compatibility by DSC: characteristic peaks not determined; for Pharmaceutical incompatibility (discussion of DSC): with Dabigatran etexilate
Description: (§1) DSC Analysis: DSC scan of about 2 mg using an automatic thermal analyzer system performed accurately weighed of APIs (Dabigatran etexilate, Dabigatran etexilate mesylate, Esomeprazole, Dexlansoprazole) of 1:1 in ratio respectively. DSC scans performed with 10° C. per minute heat flow from 30° C. to 300° C. The peak shifting of active ingredients was determined by DSC analysis.
(§2) Method Log: • 1: Pan Type: Aluminum hermetic • 2: Equilibrate at 30.00° C. • 3: Ramp 10.00 ° C./min to 300.00° C. • 4: End of method
(§3) Results (Thermograms): • FIG. 1. Thermogram of Dabigatran etexilate • FIG. 2. Thermogram of Dabigatran etexilate mesylate • FIG. 3. Thermogram of Esomeprazole • FIG. 4. Thermogram of Dexlansoprazole • FIG. 5. Thermogram of Dabigatran etexilate: Esomeprazole • FIG. 6. Thermogram of Dabigatran etexilate mesylate: Esomeprazole • FIG. 7. Thermogram of Dabigatran etexilate: Dexlansoprazole • FIG. 8. Thermogram of Dabigatran etexilate mesylate: Dexlansoprazole
(§4) Discussion: The characteristic degradation and melting peaks of active ingredients were not determined. It indicates pharmaceutical incompatibility of esomeprazole and dexlansoprazole with Dabigatran etexilate and Dabigatran etexilate mesylate.

[2] = DSC analysis of 1:1 API mixtures (compatibility with Dabigatran etexilate mesylate); assay type: physicochemical; settings: for DSC peak temperature of the mixture (peak shifting) / Compatibility by DSC: 1:1 mixture with Dabigatran etexilate mesylate; for DSC peak temperature of the mixture (peak shifting): 10° C./min, 30° C. to 300° C.; for Compatibility by DSC: characteristic peaks not determined; for Pharmaceutical incompatibility (discussion of DSC): with Dabigatran etexilate mesylate
Description: as §1, §2, §3, §4

Row | SMILES | DSC peak temperature of the mixture (peak shifting) [1] [°C] | Compatibility by DSC [1] | Pharmaceutical incompatibility (discussion of DSC) [1] | DSC peak temperature of the mixture (peak shifting) [2] [°C] | Compatibility by DSC [2] | Pharmaceutical incompatibility (discussion of DSC) [2]
1 | COc1ccc2nc([S@@+]([O-])Cc3ncc(C)c(OC)c3C)[nH]c2c1 [Esomeprazole, (S)-5-methoxy-2-[(4-methoxy-3,5-dimethylpyridin-2-yl)methylsulfinyl]-3H-benzoimidazole] | 174 | incompatible. | incompatibility | 176 | incompatible. | incompatibility
2 | Cc1c(OCC(F)(F)F)ccnc1C[S@@+]([O-])c1nc2ccccc2[nH]1 [Dexlansoprazole, (+)-2-[(R)-{[3-methyl-4-(2,2,2-trifluoroethoxy)pyridin-2-yl]methyl}sulfinyl]-1H-benzimidazole] | 87 | incompatible. | incompatibility | 82 | incompatible. | incompatibility
